Source: patent publication US6497900B2, “Effervescent base” (priority 1997, dated 2002)

Test: Breakdown of acid-sensitive active substances in the effervescent system
Format: physicochemical
Conditions: in the effervescent system according to the invention, also in a stress situation

tendency of active substance to break down and form decomposition products: substantially lower tendency
SMILES: NC(N)=Nc1nc(CSCCC(N)=NS(N)(=O)=O)cs1 [famotidine]
